# Source: patent US11932626B2, “2-pyrimidone analogs as potent antiviral agents against Alphaviruses” (priority 2020, dated 2024)
# Key:
# in vitro = details: human
# CHIKV = CHIKV virus titer reduction (VTR) assay in NHDF cells; format: cell-based; details: Chikungunya virus; for log reduction at 10 µM: CHIKV titer reduction at 10 μM, normal human dermal fibroblasts (NHDF) cells; for EC90: effective concentration of 90% inhibition of virus in a VTR assay, NHDF cells
# [1] = test system: CHIKV linked NanoLuc luciferase reporter; test: microbe, parasite or virus in culture; format: cell-based; details: Chikungunya virus, read-out: CHIKV EC50
# VEEV (TC-83) = test: microbe, parasite or virus in culture; format: cell-based; details: Venezuelan equine encephalitis virus, read-out: VEEV EC50
# VEEV = test: microbe, parasite or virus in culture; format: cell-based; details: Venezuelan equine encephalitis virus, NHDF; for EC90: read-out: VEEV EC90; for log reduction at 10 µM: read-out: VEEV VTR
SMILES,CC50 (in vitro) [µM],log reduction at 10 µM (CHIKV),EC90 (CHIKV) [µM],EC50 [1] [µM],EC50 (VEEV (TC-83)) [µM],EC90 (VEEV) [µM],log reduction at 10 µM (VEEV)
"O=C(COc1cc(C2CCC2)[nH]c(=O)n1)NC12CC3CC(CC(C3)C1)C2 [compound 12, N-(Adamantan-1-Yl)-2-((6-Cyclobutyl-2-Oxo-1,2-Dihydropyrimidin-4-Yl)Oxy)Acetamide]",> 40,3.31,0.1,0.11,1.88,0.1,3.1
"O=C(COc1cc(C2CCCC2)[nH]c(=O)n1)NC12CC3CC(CC(C3)C1)C2 [compound 13, N-(Adamantan-1-Yl)-2-((6-Cyclopentyl-2-Oxo-1,2-Dihydropyrimidin-4-Yl)Oxy)Acetamide]",> 40,5.93,0.04,1.24,17.4,4.5,1.94
"O=C(COc1cc(C2CC(F)(F)C2)[nH]c(=O)n1)NC12CC3CC(CC(C3)C1)C2 [compound 14, N-(Adamantan-1-Yl)-2-((6-(3,3-Difluorocyclobutyl)-2-Oxo-1,2-Dihydropyrimidin-4-Yl)Oxy)Acetamide]",> 40,3.17,0.07,< 0.078,0.83,0.03,8.19
"O=C(COc1cc(-c2ccccc2)[nH]c(=O)n1)NC12CC3CC(CC(C3)C1)C2 [compound 15, N-(Adamantan-1-Yl)-2-((2-Oxo-6-Phenyl-1,2-Dihydropyrimidin-4-Yl)Oxy)Acetamide]",> 40,8.93,2.7,1.47,20.8,2.02,3.25
"O=C(COc1cc(C(F)(F)F)[nH]c(=O)n1)NC12CC3CC(CC(C3)C1)C2 [compound 16, N-(Adamantan-1-Yl)-2-((2-Oxo-6-(Trifluoromethyl)-1,2-Dihydropyrimidin-4-Yl)Oxy)Acetamide]",> 40,1.09,15,> 40,> 40,> 10,0
"N#Cc1ccc(-c2cc(OCC(=O)NC34CC5CC(CC(C5)C3)C4)nc(=O)[nH]2)cc1 [compound 17, N-(Adamantan-1-Yl)-2-((6-(4-Cyanophenyl)-2-Oxo-1,2-Dihydropyrimidin-4-Yl)Oxy)Acetamide]",> 40,1.59,> 40,> 40,> 40,9.8,3.69
"O=C(COc1cc(Cl)[nH]c(=O)n1)NC12CC3CC(CC(C3)C1)C2 [compound 18, N-(Adamantan-1-Yl)-2-((6-Chloro-2-Oxo-1,2-Dihydropyrimidin-4-Yl)Oxy)Acetamide]",> 40,5.19,0.51,0.81,16.1,5.65,1
"O=C(COc1cc(N2CCOCC2)[nH]c(=O)n1)NC12CC3CC(CC(C3)C1)C2 [compound 19, N-(Adamantan-1-Yl)-2-((6-Morpholino-2-Oxo-1,2-Dihydropyrimidin-4-Yl)Oxy)Acetamide]",> 40,4.84,0.74,2.38,33.3,3.2,4.4
"O=C(COc1cc(N2CC(F)(F)C2)[nH]c(=O)n1)NC12CC3CC(CC(C3)C1)C2 [compound 20, N-(Adamantan-1-Yl)-2-((6-(3,3-Difluoroazetidin-1-Yl)-2-Oxo-1,2-Dihydropyrimidin-4-Yl)Oxy)Acetamide]",> 40,3.49,0.067,< 0.078,2.01,0.4,6.63
"O=C(COc1nc(=O)[nH]c2c1CCC2)NC12CC3CC(CC(C3)C1)C2 [compound 21, N-(Adamantan-1-Yl)-2-((2-Oxo-2,5,6,7-Tetrahydro-1H-Cyclopenta[D]Pyrimidin-4-Yl)Oxy)Acetamide]",> 40,4.26,0.3,0.53,15.7,1,5.2
"O=C(COc1nc(=O)[nH]c2c1CCCC2)NC12CC3CC(CC(C3)C1)C2 [compound 22, N-(Adamantan-1-Yl)-2-((2-Oxo-1,2,5,6,7,8-Hexahydroquinazolin-4-Yl)Oxy)Acetamide]",> 40,4.94,0.045,0.64,8.7,1.44,7.02
"O=C(COc1nc(=O)[nH]c2c1COCC2)NC12CC3CC(CC(C3)C1)C2 [compound 23, N-(Adamantan-1-Yl)-2-((2-Oxo-1,5,7,8-Tetrahydro-2H-Pyrano[4,3-D]Pyrimidin-4-Yl)Oxy)Acetamide]",> 40,5.85,0.2,1.11,11.1,2.1,6.4
"O=C(COc1nc(=O)[nH]c2ccccc12)NC12CC3CC(CC(C3)C1)C2 [compound 24, N-(Adamantan-1-Yl)-2-((2-Oxo-1,2-Dihydroquinazolin-4-Yl)Oxy)Acetamide]",> 40,6.28,0.3,0.47,> 40,3.2,1
"Cc1c[nH]c(=O)nc1OCC(=O)NC12CC3CC(CC(C3)C1)C2 [compound 25, N-(Adamantan-1-Yl)-2-((5-Methyl-2-Oxo-1,2-Dihydropyrimidin-4-Yl)Oxy)Acetamide]",> 40,4.91,2.1,1.97,16.1,2.83,3.04
"O=C(COc1nc(=O)[nH]cc1F)NC12CC3CC(CC(C3)C1)C2 [compound 26, N-(ADAMANTAN-1-YL)-2-((5-FLUORO-2-OXO-1,2-DIHYDROPYRIMIDIN-4-YL)OXY)ACETAMIDE]",> 40,5.19,0.3,3.15,> 40,0.1,3.22
"O=C(COc1nc(=O)[nH]cc1F)NC1C2CC3CC(C2)CC1C3 (stereo not drawn) [compound 27, N-(Adamantan-2-Yl)-2-((5-Fluoro-2-Oxo-1,2-Dihydropyrimidin-4-Yl)Oxy)Acetamide]",> 40,1.31,8.75,32.5,> 40,10,0
"O=C(COc1nc(=O)[nH]cc1Cl)NC12CC3CC(CC(C3)C1)C2 [compound 28, N-(Adamantan-1-Yl)-2-((5-Chloro-2-Oxo-1,2-Dihydropyrimidin-4-Yl)Oxy)Acetamide]",> 40,1.6,10,33.4,> 40,> 10,0.71
"Cc1[nH]c(=O)nc(OCC(=O)NC23CC4CC(CC(C4)C2)C3)c1C [compound 29, N-(Adamantan-1-Yl)-2-((5,6-Dimethyl-2-Oxo-1,2-Dihydropyrimidin-4-Yl)Oxy)Acetamide]",> 40,4.24,0.4,2.29,> 40,2.97,2.91
"O=C(COc1nc(=O)[nH]c(N2C3CCC2COC3)c1F)NC12CC3CC(CC(C3)C1)C2 [compound 34, 2-((6-(3-Oxa-8-Azabicyclo[3.2.1]Octan-8-Yl)-5-Fluoro-2-Oxo-1,2-Dihydropyrimidin-4-Yl)Oxy)-N-(Adamantan-1-Yl)Acetamide]",> 40,6.13,0.19,1.02,22.5,5,1.97
"O=C(COc1nc(=O)[nH]c(N2CC(F)(F)C2)c1F)NC12CC3CC(CC(C3)C1)C2 [compound 35, N-(Adamantan-1-Yl)-2-((6-(3,3-Difluoroazetidin-1-Yl)-5-Fluoro-2-Oxo-1,2-Dihydropyrimidin-4-Yl)Oxy)Acetamide]",> 40,4,0.051,0.7,5.19,1.5,3.35
"COc1cc(OCC(=O)NC23CC4CC(CC(C4)C2)C3)nc(=O)[nH]1 [compound 36, N-(adamantan-1-yl)-2-((6-methoxy-2-oxo-1,2-dihydropyrimidin-4-yl)oxy)acetamide]",> 40,4.56,0.23,1.14,> 40,> 10,0.63
"O=C(COc1cc(Oc2ccc(F)cc2)[nH]c(=O)n1)NC12CC3CC(CC(C3)C1)C2 [compound 37, N-(adamantan-1-yl)-2-((6-(4-fluorophenoxy)-2-oxo-1,2-dihydropyrimidin-4-yl)oxy)acetamide]",> 40,0,> 10,> 40,> 40,> 10,0.8
"Cc1[nH]c(=O)nc(SCC(=O)NC23CC4CC(CC(C4)C2)C3)c1C(=O)O [compound 38, 4-((2-((Adamantan-1-Yl)Amino)-2-Oxoethyl)Thio)-6-Methyl-2-Oxo-1,2-Dihydropyrimidine-5-Carboxylic Acid]",> 40,1.19,,> 40,> 40,,0.23
